Assay results as given in US12540118B2, “Dendrene amide compound, bactericide and use thereof” (Jiangsu Flag Chemical Industry Co., Ltd., priority 2020, dated 2026).

How the values were obtained:
succinate dehydrogenase = target: T1, succinate dehydrogenase (Sus scrofa, UniProt A5GZW8+D0VWV4+Q007T0); experiment: Enzyme activity assay, succinate dehydrogenase (DCIP reduction); format: biochemical, porcine; conditions: read-out: Inhibitors (10 μM, SQR)
T1 construct: isolated from porcine hearts; from tissue; host or cells: porcine heart
Summary of the method: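 Porcine heart succinate dehydrogenase (2 nM) in 100 mM sodium phosphate pH 7.4, 0.3 mM EDTA, 20 mM sodium succinate and 53 μM DCIP at 23° C with stirring. DCIP reduction followed at 600 nm (ε 21 mM^−1 cm^−1); linear slope minus baseline gives initial rate.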

Erysiphe graminis = Erysiphe graminis potting method; format: in vivo; conditions: Blumeria graminis, read-out: Erysiphe graminis control rating; for pest or weed control at 100 µg/mL: 100 mg/L
Description: The fungicidal activity of the control agents and target compounds are determined. The test and investigation method refers to SOP-SC-1116 Erysiphe graminis potting method in disinfectant rolls written by KANGZHUO and GUBAOGEN in “Standard operation specification for testing biological activity of pesticides”.

Sphaerotheca fuliginea = Sphaerotheca fuliginea potting method; format: in vivo; conditions: Podosphaera fuliginea; 100 mg/L; read-out: Sphaerotheca fuliginea control rating
Description: The fungicidal activity of the control agents and target compounds are determined. The test and investigation method refers to SOP-SC-1101 sphaerotheca fuliginea potting method in disinfectant rolls written by KANGZHUO and GUBAOGEN in “Standard operation specification for testing biological activity of pesticides”.

T1 sequence (Q0QF01 43-664 partner): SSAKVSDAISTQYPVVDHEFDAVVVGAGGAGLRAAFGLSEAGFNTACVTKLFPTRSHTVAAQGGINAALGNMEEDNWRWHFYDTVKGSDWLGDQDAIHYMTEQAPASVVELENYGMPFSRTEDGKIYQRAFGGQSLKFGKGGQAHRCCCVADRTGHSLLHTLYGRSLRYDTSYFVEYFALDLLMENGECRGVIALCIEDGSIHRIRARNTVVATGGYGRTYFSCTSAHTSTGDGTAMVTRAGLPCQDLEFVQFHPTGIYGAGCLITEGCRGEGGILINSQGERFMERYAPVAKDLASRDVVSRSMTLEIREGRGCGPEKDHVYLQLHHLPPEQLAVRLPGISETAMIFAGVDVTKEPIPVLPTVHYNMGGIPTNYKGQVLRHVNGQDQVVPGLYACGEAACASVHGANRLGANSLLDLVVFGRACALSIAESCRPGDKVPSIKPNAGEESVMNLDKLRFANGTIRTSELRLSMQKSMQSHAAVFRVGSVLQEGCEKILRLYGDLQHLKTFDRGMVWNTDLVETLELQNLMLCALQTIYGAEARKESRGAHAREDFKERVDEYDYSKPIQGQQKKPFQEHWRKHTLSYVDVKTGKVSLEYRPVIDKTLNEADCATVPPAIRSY
T1 sequence (Q007T0 29-280): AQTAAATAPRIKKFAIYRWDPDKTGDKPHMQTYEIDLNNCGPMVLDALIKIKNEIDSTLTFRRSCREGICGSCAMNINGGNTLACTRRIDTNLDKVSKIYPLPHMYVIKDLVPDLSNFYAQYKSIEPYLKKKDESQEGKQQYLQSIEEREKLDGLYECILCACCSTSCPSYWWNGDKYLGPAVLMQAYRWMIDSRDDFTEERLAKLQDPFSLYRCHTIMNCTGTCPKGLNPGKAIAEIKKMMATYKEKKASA
T1 sequence (D0VWV4 30-169): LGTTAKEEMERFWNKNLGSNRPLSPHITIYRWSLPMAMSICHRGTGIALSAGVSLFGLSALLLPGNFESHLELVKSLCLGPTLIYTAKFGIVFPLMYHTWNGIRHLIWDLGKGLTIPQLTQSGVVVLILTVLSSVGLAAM
T1 sequence (A5GZW8 57-159 limits assumed): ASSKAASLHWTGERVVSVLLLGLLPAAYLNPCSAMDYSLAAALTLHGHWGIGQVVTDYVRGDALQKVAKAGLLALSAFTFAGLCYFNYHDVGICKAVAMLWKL

C=C(c1ccc(OC)cc1)C(C)N(C(=O)c1c(C(F)F)nn(C)c1F)C1CC1 (centres unmarked) [Compound 61]
inhibition at 10 µM (succinate dehydrogenase): > 90% | pest or weed control at 100 µg/mL (Erysiphe graminis): 80 to 100% | pest or weed control at 100 µg/mL (Sphaerotheca fuliginea): 80 to 100%

Cn1nc(C(F)F)c(C(=O)N(CC(=C(Cl)Cl)c2c(Cl)cccc2Cl)C2CC2)c1F [Compound 120]
inhibition at 10 µM (succinate dehydrogenase): > 90% | pest or weed control at 100 µg/mL (Erysiphe graminis): 80 to 100% | pest or weed control at 100 µg/mL (Sphaerotheca fuliginea): 80 to 100%

C=C(CN(C(=O)c1c(C(F)F)nn(C)c1F)C1CC1)c1ccc(S(C)(=O)=O)cc1 [Compound 15]
inhibition at 10 µM (succinate dehydrogenase): > 90% | pest or weed control at 100 µg/mL (Erysiphe graminis): 80 to 100% | pest or weed control at 100 µg/mL (Sphaerotheca fuliginea): 70 to 80%

Cc1cc(C(C)C)ccc1C(CN(C(=O)c1c(C(F)F)nn(C)c1F)C1CC1)=C(Cl)Cl [Compound 148]
inhibition at 10 µM (succinate dehydrogenase): > 90% | pest or weed control at 100 µg/mL (Erysiphe graminis): 80 to 100% | pest or weed control at 100 µg/mL (Sphaerotheca fuliginea): 80 to 100%

C=C(c1ccc(Cl)cc1Cl)C(C)N(C(=O)c1c(C(F)F)nn(C)c1F)C1CC1 (centres unmarked) [Compound 67]
inhibition at 10 µM (succinate dehydrogenase): > 90% | pest or weed control at 100 µg/mL (Erysiphe graminis): 80 to 100% | pest or weed control at 100 µg/mL (Sphaerotheca fuliginea): 80 to 100%

Cc1ccc(C(CN(C(=O)c2c(C(F)F)nn(C)c2F)C2CC2)=C(Cl)Cl)cc1 [Compound 150]
inhibition at 10 µM (succinate dehydrogenase): > 90% | pest or weed control at 100 µg/mL (Erysiphe graminis): 80 to 100% | pest or weed control at 100 µg/mL (Sphaerotheca fuliginea): 80 to 100%

C=C(c1ccccc1Br)C(C)N(C(=O)c1c(C(F)F)nn(C)c1F)C1CC1 (centres unmarked) [Compound 80]
inhibition at 10 µM (succinate dehydrogenase): > 90% | pest or weed control at 100 µg/mL (Erysiphe graminis): 80 to 100% | pest or weed control at 100 µg/mL (Sphaerotheca fuliginea): 80 to 100%

CC(C(=C(Cl)Cl)c1ccc(Br)c(Br)c1)N(C(=O)c1c(C(F)F)nn(C)c1F)C1CC1 (centres unmarked) [Compound 191]
inhibition at 10 µM (succinate dehydrogenase): > 90% | pest or weed control at 100 µg/mL (Erysiphe graminis): 80 to 100% | pest or weed control at 100 µg/mL (Sphaerotheca fuliginea): 80 to 100%

Cn1nc(C(F)F)c(C(=O)N(CC(=C(Cl)Cl)c2ccccc2Br)C2CC2)c1F [Compound 132]
inhibition at 10 µM (succinate dehydrogenase): > 90% | pest or weed control at 100 µg/mL (Erysiphe graminis): 80 to 100% | pest or weed control at 100 µg/mL (Sphaerotheca fuliginea): 80 to 100%

C=C(CN(C(=O)c1c(C(F)F)nn(C)c1F)C1CC1)c1c(Br)cc(Br)cc1Br [Compound 31]
inhibition at 10 µM (succinate dehydrogenase): > 90% | pest or weed control at 100 µg/mL (Erysiphe graminis): 80 to 100% | pest or weed control at 100 µg/mL (Sphaerotheca fuliginea): 80 to 100%

Cc1ccc(C(C)C)c(C(CN(C(=O)c2c(C(F)F)nn(C)c2F)C2CC2)=C(Cl)Cl)c1 [Compound 145]
inhibition at 10 µM (succinate dehydrogenase): > 90% | pest or weed control at 100 µg/mL (Erysiphe graminis): 80 to 100% | pest or weed control at 100 µg/mL (Sphaerotheca fuliginea): 80 to 100%

Cc1ccc(C(=C(Cl)Cl)C(C)N(C(=O)c2c(C(F)F)nn(C)c2F)C2CC2)cc1 (centres unmarked) [Compound 203]
inhibition at 10 µM (succinate dehydrogenase): > 90% | pest or weed control at 100 µg/mL (Erysiphe graminis): 80 to 100% | pest or weed control at 100 µg/mL (Sphaerotheca fuliginea): 80 to 100%

C=C(c1cccc(S(C)(=O)=O)c1)C(C)N(C(=O)c1c(C(F)F)nn(C)c1F)C1CC1 (centres unmarked) [Compound 104]
inhibition at 10 µM (succinate dehydrogenase): > 90% | pest or weed control at 100 µg/mL (Erysiphe graminis): 80 to 100% | pest or weed control at 100 µg/mL (Sphaerotheca fuliginea): 80 to 100%

Cn1nc(C(F)F)c(C(=O)N(CC(=C(Cl)Cl)c2ccccc2)C2CC2)c1F [Compound 111]
inhibition at 10 µM (succinate dehydrogenase): > 90% | pest or weed control at 100 µg/mL (Erysiphe graminis): 80 to 100% | pest or weed control at 100 µg/mL (Sphaerotheca fuliginea): 80 to 100%

C=C(CN(C(=O)c1c(C(F)F)nn(C)c1F)C1CC1)c1cc(C)ccc1C(C)C [Compound 38]
inhibition at 10 µM (succinate dehydrogenase): > 90% | pest or weed control at 6.25 µg/mL (Erysiphe graminis; 6.25 mg/L): 70 to 80% | pest or weed control at 25 µg/mL (Erysiphe graminis; 25 mg/L): 80 to 100% | pest or weed control at 100 µg/mL (Erysiphe graminis): 80 to 100% | pest or weed control at 100 µg/mL (Sphaerotheca fuliginea): 70 to 80%

CC(C(=C(Cl)Cl)c1ccc(F)c(F)c1)N(C(=O)c1c(C(F)F)nn(C)c1F)C1CC1 (centres unmarked) [Compound 183]
inhibition at 10 µM (succinate dehydrogenase): > 90% | pest or weed control at 100 µg/mL (Erysiphe graminis): 80 to 100% | pest or weed control at 100 µg/mL (Sphaerotheca fuliginea): 80 to 100%

Cc1cc(C(C)C)ccc1C(=C(Cl)Cl)C(C)N(C(=O)c1c(C(F)F)nn(C)c1F)C1CC1 (centres unmarked) [Compound 201]
inhibition at 10 µM (succinate dehydrogenase): > 90% | pest or weed control at 100 µg/mL (Erysiphe graminis): 80 to 100% | pest or weed control at 100 µg/mL (Sphaerotheca fuliginea): 80 to 100%

CCS(=O)(=O)c1ccc(C(CN(C(=O)c2c(C(F)F)nn(C)c2F)C2CC2)=C(Cl)Cl)cc1 [Compound 163]
inhibition at 10 µM (succinate dehydrogenase): > 90% | pest or weed control at 100 µg/mL (Erysiphe graminis): 80 to 100% | pest or weed control at 100 µg/mL (Sphaerotheca fuliginea): 80 to 100%
